The data set has as its system Rattus norvegicus. The data set can be described thus: Retention time in albino Wistar Hannover rat treated with 5 mg/kg, iv of [14C]figopitant. The data set is classed as ADME, organism-based. Also noted: dose 5 mg/kg, route intravenous. Particulars: in vivo.

In the case of `CN(CCc1cc(C(F)(F)F)cc(C(F)(F)F)c1)C(=O)[C@H](c1ccccc1)N1CCNCC1`, the Retention_time is 14.5 min. Molecule `CN(CC(O)c1cc(C(F)(F)F)cc(C(F)(F)F)c1)C(=O)[C@H](c1ccccc1)N1CCN(CC2CC2)CC1` (stereo partly drawn) returned a Retention_time of 24.2 min.

As for `CN(CCc1cc(C(F)(F)F)cc(C(F)(F)F)c1)C(=O)[C@@H](NCCN)c1ccccc1`, the Retention_time was found to be 11.9 min.

Values taken from ChEMBL document CHEMBL3525916, “Investigation of figopitant and its metabolites in rat tissue by combining whole-body autoradiography with liquid extraction surface analysis mass spectrometry” (Drug Metab Dispos, 2012).
